Test results reported in ChEMBL document CHEMBL6078668, “Synthesis and biological evaluation of lappaconitine analogues as potential anti-neuroinflammatory agents by side chain modification and scaffold hopping strategy” (Bioorg Med Chem, 2025).

Columns and labels:
[1] = Cytotoxicity against C57BL/6 mouse BV-2 cells assessed as survival rate at 30 uM incubated for 24 hrs by MTT assay relative to control; assay type: toxicity, cell-based; settings: read-out: Survival
BV-2 = assay: Anti-neuroinflammatory activity against LPS-stimulated C57BL/6 mouse BV-2 cells assessed as inhibition of NO release at 30 uM preincubated with compound for 4 hrs followed by LPS addition and measured after 24 hrs by Griess reagent based assay relative to control; assay type: functional; settings: C57BL/6, BV-2, time 28 hrs

COC(=O)c1ccccc1NS(=O)(=O)c1ccc(Br)s1
viability at 24 h, 30 µM [1]: 99.1% | inhibition at 30 µM (BV-2): 43.8%

CCCCOC(=O)c1ccccc1NC(=O)c1ccc(Cl)s1
viability at 24 h, 30 µM [1]: 110% | inhibition at 30 µM (BV-2): 42.8%

CCN1C[C@]2(OC(=O)c3ccccc3NC(=O)S(=O)(=O)c3ccc(OC)cc3OC)CC[C@H](OC)[C@]34C1[C@@H](C[C@H]23)[C@@]1(O)C[C@H](OC)[C@H]2C[C@@H]4[C@]1(O)[C@H]2OC
viability at 24 h, 30 µM [1]: 99.7% | inhibition at 30 µM (BV-2): 20.9%

CCN1C[C@]2(OC(=O)c3ccccc3NC(=O)S(=O)(=O)c3ccccc3)CC[C@H](OC)[C@]34C1[C@@H](C[C@H]23)[C@@]1(O)C[C@H](OC)[C@H]2C[C@@H]4[C@]1(O)[C@H]2OC
viability at 24 h, 30 µM [1]: 97.2% | inhibition at 30 µM (BV-2): 31.8%

CCN1C[C@]2(OC(=O)c3ccccc3NC(=O)S(=O)(=O)c3cccc4ccccc34)CC[C@H](OC)[C@]34C1[C@@H](C[C@H]23)[C@@]1(O)C[C@H](OC)[C@H]2C[C@@H]4[C@]1(O)[C@H]2OC
viability at 24 h, 30 µM [1]: 105% | inhibition at 30 µM (BV-2): 30.5%

CCN1C[C@]2(OC(=O)c3ccccc3NC(=O)S(=O)(=O)c3cccc4cccnc34)CC[C@H](OC)[C@]34C1[C@@H](C[C@H]23)[C@@]1(O)C[C@H](OC)[C@H]2C[C@@H]4[C@]1(O)[C@H]2OC
viability at 24 h, 30 µM [1]: 103% | inhibition at 30 µM (BV-2): 46.2%

CCN1C[C@]2(OC(=O)c3ccccc3NC(=O)S(=O)(=O)c3ccc(C)c(Cl)c3)CC[C@H](OC)[C@]34C1[C@@H](C[C@H]23)[C@@]1(O)C[C@H](OC)[C@H]2C[C@@H]4[C@]1(O)[C@H]2OC
viability at 24 h, 30 µM [1]: 94.8% | inhibition at 30 µM (BV-2): 25.2%

CCN1C[C@]2(OC(=O)c3ccccc3NC(=O)c3ccc(C)cc3C)CC[C@H](OC)[C@]34C1[C@@H](C[C@H]23)[C@@]1(O)C[C@H](OC)[C@H]2C[C@@H]4[C@]1(O)[C@H]2OC
viability at 24 h, 30 µM [1]: 104% | inhibition at 30 µM (BV-2): 16%

CCN1C[C@]2(OC(=O)c3ccccc3NC(=O)S(=O)(=O)c3cccc(C)c3)CC[C@H](OC)[C@]34C1[C@@H](C[C@H]23)[C@@]1(O)C[C@H](OC)[C@H]2C[C@@H]4[C@]1(O)[C@H]2OC
viability at 24 h, 30 µM [1]: 106% | inhibition at 30 µM (BV-2): 46.5%

CCN1C[C@]2(OC(=O)c3ccccc3NC(=O)C3CCCCC3)CC[C@H](OC)[C@]34C1[C@@H](C[C@H]23)[C@@]1(O)C[C@H](OC)[C@H]2C[C@@H]4[C@]1(O)[C@H]2OC
viability at 24 h, 30 µM [1]: 105% | inhibition at 30 µM (BV-2): 44.5%

CCN1C[C@]2(OC(=O)c3ccccc3NC(=O)S(=O)(=O)c3ccc(OC)c(OC)c3)CC[C@H](OC)[C@]34C1[C@@H](C[C@H]23)[C@@]1(O)C[C@H](OC)[C@H]2C[C@@H]4[C@]1(O)[C@H]2OC
viability at 24 h, 30 µM [1]: 105% | inhibition at 30 µM (BV-2): 19.4%

C=C(C)C(=O)Nc1ccccc1C(=O)O[C@@]12CC[C@H](OC)[C@]34C([C@@H](C[C@H]13)[C@@]1(O)C[C@H](OC)[C@H]3C[C@@H]4[C@]1(O)[C@H]3OC)N(CC)C2
viability at 24 h, 30 µM [1]: 94.2% | inhibition at 30 µM (BV-2): 12.9%

CCN1C[C@]2(OC(=O)c3ccccc3NC(=O)C(C)C)CC[C@H](OC)[C@]34C1[C@@H](C[C@H]23)[C@@]1(O)C[C@H](OC)[C@H]2C[C@@H]4[C@]1(O)[C@H]2OC
viability at 24 h, 30 µM [1]: 105% | inhibition at 30 µM (BV-2): 8.9%

CCN1C[C@]2(OC(=O)c3ccccc3NC(=O)S(=O)(=O)/C=C/c3ccccc3)CC[C@H](OC)[C@]34C1[C@@H](C[C@H]23)[C@@]1(O)C[C@H](OC)[C@H]2C[C@@H]4[C@]1(O)[C@H]2OC
viability at 24 h, 30 µM [1]: 108% | inhibition at 30 µM (BV-2): 29.4%

CCN1C[C@]2(OC(=O)c3ccccc3NC(=O)S(=O)(=O)c3ccc(F)cc3)CC[C@H](OC)[C@]34C1[C@@H](C[C@H]23)[C@@]1(O)C[C@H](OC)[C@H]2C[C@@H]4[C@]1(O)[C@H]2OC
viability at 24 h, 30 µM [1]: 109% | inhibition at 30 µM (BV-2): 40.6%

CCN1C[C@]2(OC(=O)c3ccccc3NC(=O)c3ccc(OC)cc3)CC[C@H](OC)[C@]34C1[C@@H](C[C@H]23)[C@@]1(O)C[C@H](OC)[C@H]2C[C@@H]4[C@]1(O)[C@H]2OC
viability at 24 h, 30 µM [1]: 100% | inhibition at 30 µM (BV-2): 45.2%

CCN1C[C@]2(OC(=O)c3ccccc3NC(=O)c3ccc(C#N)cc3)CC[C@H](OC)[C@]34C1[C@@H](C[C@H]23)[C@@]1(O)C[C@H](OC)[C@H]2C[C@@H]4[C@]1(O)[C@H]2OC
viability at 24 h, 30 µM [1]: 99.5% | inhibition at 30 µM (BV-2): 6.6%

CCN1C[C@]2(OC(=O)c3ccccc3NC(=O)S(=O)(=O)c3ccc(C4CCCCC4)cc3)CC[C@H](OC)[C@]34C1[C@@H](C[C@H]23)[C@@]1(O)C[C@H](OC)[C@H]2C[C@@H]4[C@]1(O)[C@H]2OC
viability at 24 h, 30 µM [1]: 93.7% | inhibition at 30 µM (BV-2): 38.5%

CCN1C[C@]2(OC(=O)c3ccccc3NC(=O)c3cccc(F)c3)CC[C@H](OC)[C@]34C1[C@@H](C[C@H]23)[C@@]1(O)C[C@H](OC)[C@H]2C[C@@H]4[C@]1(O)[C@H]2OC
viability at 24 h, 30 µM [1]: 107% | inhibition at 30 µM (BV-2): 11%

CCN1C[C@]2(OC(=O)c3ccccc3NC(=O)S(=O)(=O)c3ccc(Cl)cc3F)CC[C@H](OC)[C@]34C1[C@@H](C[C@H]23)[C@@]1(O)C[C@H](OC)[C@H]2C[C@@H]4[C@]1(O)[C@H]2OC
viability at 24 h, 30 µM [1]: 99.8% | inhibition at 30 µM (BV-2): 14.9%

CCN1C[C@]2(OC(=O)c3ccccc3NC(=O)S(=O)(=O)c3csc4ccccc34)CC[C@H](OC)[C@]34C1[C@@H](C[C@H]23)[C@@]1(O)C[C@H](OC)[C@H]2C[C@@H]4[C@]1(O)[C@H]2OC
viability at 24 h, 30 µM [1]: 100% | inhibition at 30 µM (BV-2): 30.7%

CCN1C[C@]2(OC(=O)c3ccccc3NC(=O)c3ccc(F)cc3)CC[C@H](OC)[C@]34C1[C@@H](C[C@H]23)[C@@]1(O)C[C@H](OC)[C@H]2C[C@@H]4[C@]1(O)[C@H]2OC
viability at 24 h, 30 µM [1]: 104% | inhibition at 30 µM (BV-2): 22.3%

CCN1C[C@]2(OC(=O)c3ccccc3NC(=O)S(=O)(=O)c3ccccc3C#N)CC[C@H](OC)[C@]34C1[C@@H](C[C@H]23)[C@@]1(O)C[C@H](OC)[C@H]2C[C@@H]4[C@]1(O)[C@H]2OC
viability at 24 h, 30 µM [1]: 101% | inhibition at 30 µM (BV-2): 27.5%

CCCC(C)C(=O)Nc1ccccc1C(=O)O[C@@]12CC[C@H](OC)[C@]34C([C@@H](C[C@H]13)[C@@]1(O)C[C@H](OC)[C@H]3C[C@@H]4[C@]1(O)[C@H]3OC)N(CC)C2 (stereo partly specified)
viability at 24 h, 30 µM [1]: 108% | inhibition at 30 µM (BV-2): 57.8%

CCN1C[C@]2(OC(=O)c3ccccc3NC(=O)S(=O)(=O)c3cccc(OC)c3)CC[C@H](OC)[C@]34C1[C@@H](C[C@H]23)[C@@]1(O)C[C@H](OC)[C@H]2C[C@@H]4[C@]1(O)[C@H]2OC
viability at 24 h, 30 µM [1]: 102% | inhibition at 30 µM (BV-2): 23.5%

CCN1C[C@]2(OC(=O)c3ccccc3NC(=O)S(=O)(=O)c3ccc(C)cc3F)CC[C@H](OC)[C@]34C1[C@@H](C[C@H]23)[C@@]1(O)C[C@H](OC)[C@H]2C[C@@H]4[C@]1(O)[C@H]2OC
viability at 24 h, 30 µM [1]: 106% | inhibition at 30 µM (BV-2): 26.4%

CCN1C[C@]2(COC(=O)c3ccccc3NS(=O)(=O)c3ccc(Br)s3)CC[C@H](OC)[C@]34C1[C@@H](C[C@H]23)[C@@]1(O)C[C@H](OC)[C@H]2C[C@@H]4[C@]1(O)[C@H]2OC
viability at 24 h, 30 µM [1]: 97.8% | inhibition at 30 µM (BV-2): 34.7%

CCc1ccc(C(=O)Nc2ccccc2C(=O)OC[C@@]23CC[C@H](OC)[C@]45C([C@@H](C[C@H]24)[C@@]2(O)C[C@H](OC)[C@H]4C[C@@H]5[C@]2(O)[C@H]4O)N(CC)C3)cc1
viability at 24 h, 30 µM [1]: 104% | inhibition at 30 µM (BV-2): 15.5%

CCOc1ccc(C(=O)Nc2ccccc2C(=O)O[C@@]23CC[C@H](OC)[C@]45C([C@@H](C[C@H]24)[C@@]2(O)C[C@H](OC)[C@H]4C[C@@H]5[C@]2(O)[C@H]4OC)N(CC)C3)cc1
viability at 24 h, 30 µM [1]: 101% | inhibition at 30 µM (BV-2): 53.6%

CCN1C[C@]2(OC(=O)c3ccccc3NC(=O)c3cccc(Br)c3)CC[C@H](OC)[C@]34C1[C@@H](C[C@H]23)[C@@]1(O)C[C@H](OC)[C@H]2C[C@@H]4[C@]1(O)[C@H]2OC
viability at 24 h, 30 µM [1]: 100% | inhibition at 30 µM (BV-2): 44.1%

CCN1C[C@]2(OC(=O)c3ccccc3NC(=O)S(C)(=O)=O)CC[C@H](OC)[C@]34C1[C@@H](C[C@H]23)[C@@]1(O)C[C@H](OC)[C@H]2C[C@@H]4[C@]1(O)[C@H]2OC
viability at 24 h, 30 µM [1]: 102% | inhibition at 30 µM (BV-2): 5.1%

CCN1C[C@]2(OC(=O)c3ccccc3NC(=O)C3CCCO3)CC[C@H](OC)[C@]34C1[C@@H](C[C@H]23)[C@@]1(O)C[C@H](OC)[C@H]2C[C@@H]4[C@]1(O)[C@H]2OC (stereo partly specified)
viability at 24 h, 30 µM [1]: 108% | inhibition at 30 µM (BV-2): 14.5%

CCN1C[C@]2(OC(=O)c3ccccc3NC(=O)c3cccc(OC)c3)CC[C@H](OC)[C@]34C1[C@@H](C[C@H]23)[C@@]1(O)C[C@H](OC)[C@H]2C[C@@H]4[C@]1(O)[C@H]2OC
viability at 24 h, 30 µM [1]: 107% | inhibition at 30 µM (BV-2): 44.9%

COC(=O)c1ccccc1NS(=O)(=O)c1cccc(F)c1
viability at 24 h, 30 µM [1]: 106% | inhibition at 30 µM (BV-2): 38.5%

CCN1C[C@]2(O)CC[C@H](OC)[C@]34C1[C@@H](C[C@H]23)[C@@]1(O)C[C@H](OC)[C@H]2C[C@@H]4[C@]1(O)[C@H]2OC
viability at 24 h, 30 µM [1]: 97.4% | inhibition at 30 µM (BV-2): 8.8%

CCN1C[C@]2(OC(=O)c3ccccc3NC(=O)S(=O)(=O)c3cc(Cl)ccc3F)CC[C@H](OC)[C@]34C1[C@@H](C[C@H]23)[C@@]1(O)C[C@H](OC)[C@H]2C[C@@H]4[C@]1(O)[C@H]2OC
viability at 24 h, 30 µM [1]: 95.1% | inhibition at 30 µM (BV-2): 36.1%

O=C(Nc1ccccc1C(=O)O)c1ccc(Cl)s1
viability at 24 h, 30 µM [1]: 98.7% | inhibition at 30 µM (BV-2): 32.4%

CCN1C[C@]2(OC(=O)c3ccccc3NC(=O)S(=O)(=O)c3cncc(Br)c3)CC[C@H](OC)[C@]34C1[C@@H](C[C@H]23)[C@@]1(O)C[C@H](OC)[C@H]2C[C@@H]4[C@]1(O)[C@H]2OC
viability at 24 h, 30 µM [1]: 91.5% | inhibition at 30 µM (BV-2): 20.3%
